Test results from patent US20240269298A1, “PHOSPHONYL DERIVATIVE, AND COMPOSITION AND PHARMACEUTICAL APPLICATION THEREOF” (XIZANG HAISCO PHARMACEUTICAL CO., LTD., priority 2021, published 2024).
Like-named read-outs stand apart in the source and are kept apart here.

Experiments:
[1] = test system: NCI-H1975 (EGFR-L858R-T790M) cells; assay: Inhibitory activity on proliferation of NCI-H1975 (EGFR-L858R-T790M) cells (CTG, 72 h); format: cell-based; conditions: Homo sapiens
Method in brief: (§1)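 Cells plated at 1000/well (NCI-H1975, RPMI1640+10% FBS) or 3000/well (A431, DMEM+10% FBS), dosed next day with compounds (0.1% DMSO final) for 72 h at 37 °C, 5% CO2. Viability by CTG luminescence, normalised to vehicle control; IC50 from nonlinear-regression dose-survival curves.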

A431 (EGFR-WT) cells = assay: Inhibitory activity on proliferation of A431 (EGFR-WT) cells (CTG, 72 h); format: cell-based; conditions: Homo sapiens, A-431
Method in brief: as §1

[2] = Pharmacokinetic test in mice; format: in vivo; conditions: male, ICR, mouse, po, administration i.g. (10 mg/kg), plasma
Experimental: Test objective: In this experiment, a single dose of test compounds was administered to ICR mice intravenously and intragastrically, the concentrations of the test compounds in plasma of mice were measured, and the pharmacokinetic characteristics and bioavailability of the test compounds in mice were evaluated.
Experimental animals: male ICR mice, 20-25 g, purchased from BEIJING HFK BIOSCIENCE CO., LTD. with the laboratory animal production license number of SCXK (JING) 2019-0008; or purchased from CHENGDU DDOSSY EXPERIMENTAL ANIMALS CO., LTD. (SCXK (CHUAN) 2020-030); or purchased from HUNAN SJA LABORATORY ANIMAL CO., LTD. (SCXK (XIANG) 2019-0004).
Experimental method: on the day of the experiment, ICR mice were randomly grouped according to their body weights. The mice were fasted with water available for 12 to 14 hours one day before the administration, and were fed 4 hours after the administration.
Sampling: before and after the administration, blood was taken from the orbits of the mice under isoflurane anesthesia, and placed in an EDTAK2 centrifuge tube. Centrifugation was carried out at 5000 rpm at 4° C. for 10 min, and the plasma was collected.
Time points for plasma collection in G1&G2 groups: 0, 5 min, 15 min, 30 min, 1h, 2h, 4h, 6h, 8h, and 24 h; • time points for plasma collection in G3 group: 0, 5 min, 15 min, 30 min, 1 h, 2 h, 4 h, 6h, 8h, and 24 h; • before analysis and detection, all samples were stored at −80° C. The samples were analyzed quantitatively by LC-MS/MS.

[3] = read-out: IC50 (value in brackets)

IC50 ([1]; read-out: IC50 (class symbol)) [nM]	IC50 [1, 3] [nM]	IC50 (A431 (EGFR-WT) cells) [nM]	AUC(0-t) [2] [ng·h/mL]	AUC [2] [ng·h/mL]	half-life [2] [h]	Compound
< 100	33	–	–	104000	5.12	COc1cc(N2CCC(CN3CCN(c4ccc5c(c4)C(=O)N(C4CCC(=O)NC4=O)C5=O)CC3)CC2)c(-c2cnn(C)c2)cc1Nc1ncc(Cl)c(Nc2ccc(F)cc2P(C)(C)=O)n1 (stereo not shown) [Compound 142, 5-(4-((1-(4-((5-chloro-4-((2-(dimethylphosphoryl)-4-fluorophenyl)amino)pyrimidin-2-yl)amino)-5-methoxy-2-(1-methyl-1H-pyrazol-4-yl)phenyl)piperidin-4-yl)methyl)piperazin-1-yl)-2-(2,6-dioxopiperidin-3-yl)isoindoline-1,3-dione]
< 100	49	≥ 10000	20800	–	–	COc1cc(N2CCC(CN3CCC4(CC3)CCN(c3ccc5c(c3)C(=O)N(C3CCC(=O)NC3=O)C5=O)CC4)CC2)c(-c2cnn(C)c2)cc1Nc1ncc(Br)c(Nc2ccc(-c3ccccc3F)cc2P(C)(C)=O)n1 (stereo not shown) [Compound 95, 5-(9-((1-(4-((5-bromo-4-((3-(dimethylphosphoryl)-2′-fluoro-[1,1′-biphenyl]-4-yl)amino)pyrimidin-2-yl)amino)-5-methoxy-2-(1-methyl-1H-pyrazol-4-yl)phenyl)piperidin-4-yl)methyl)-3,9-diazaspiro[5.5]undecan-3-yl)-2-(2,6-dioxopiperidin-3-yl)isoindoline-1,3-dione]
< 100	31	≥ 10000	16400	–	–	COc1cc(N2CCC(N3CCN(CC4CCN(c5ccc6c(c5)C(=O)N(C5CCC(=O)NC5=O)C6=O)CC4)CC3)CC2)c(-c2cnn(C)c2)cc1Nc1ncc(Cl)c(Nc2ccc3ccccc3c2P(C)(C)=O)n1 (stereo not shown) [Compound 72, 5-(4-((4-(1-(4-((5-chloro-4-((1-(dimethylphosphoryl)naphthalen-2-yl)amino)pyrimidin-2-yl)amino)-5-methoxy-2-(1-methyl-1H-pyrazol-4-yl)phenyl)piperidin-4-yl)piperazin-1-yl)methyl)piperidin-1-yl)-2-(2,6-dioxopiperidin-3-yl)isoindoline-1,3-dione]
< 100	72	≥ 10000	16300	–	–	COc1cc(N2CCC(N3CCN(CC4CCN(c5ccc6c(c5)C(=O)N(C5CCC(=O)NC5=O)C6=O)CC4)CC3)CC2)c(-c2cnn(C)c2)cc1Nc1ncc(Cl)c(Nc2ccc(-c3ccccc3)cc2P(C)(C)=O)n1 (stereo not shown) [Compound 58, 5-(4-((4-(1-(4-((5-chloro-4-((3-(dimethylphosphoryl)-[1,1′-biphenyl]-4-yl)amino)pyrimidin-2-yl)amino)-5-methoxy-2-(1-methyl-1H-pyrazol-4-yl)phenyl)piperidin-4-yl)piperazin-1-yl)methyl)piperidin-1-yl)-2-(2,6-dioxopiperidin-3-yl)isoindoline-1,3-dione]
< 100	61	–	28600	–	–	COc1cc(N2CCC(N3CCN(CC4CCN(c5ccc(C(=O)NC6CCC(=O)NC6=O)nc5)CC4)CC3)CC2)c(-c2cnn(C)c2)cc1Nc1ncc(Br)c(Nc2ccc(-c3ccccc3)cc2P(C)(C)=O)n1 (stereo not shown) [Compound 56, 5-(4-((4-(1-(4-((5-bromo-4-((3-(dimethylphosphoryl)-[1,1′-biphenyl]-4-yl)amino)pyrimidin-2-yl)amino)-5-methoxy-2-(1-methyl-1H-pyrazol-4-yl)phenyl)piperidin-4-yl)piperazin-1-yl)methyl)piperidin-1-yl)-N-(2,6-dioxopiperidin-3-yl)picolinamide]
< 100	51	–	6000	–	–	COc1cc(N2CCC3(CCN(CC4CCN(c5cc6c(cc5F)C(=O)N(C5CCC(=O)NC5=O)C6=O)CC4)CC3)CC2)c(-c2cnn(C)c2)cc1Nc1ncc(Br)c(Nc2ccc(-c3ccccc3)cc2P(C)(C)=O)n1 (stereo not shown) [Compound 39, 5-(4-((9-(4-((5-bromo-4-((3-(dimethylphosphoryl)-[1,1′-biphenyl]-4-yl)amino)pyrimidin-2-yl)amino)-5-methoxy-2-(1-methyl-1H-pyrazol-4-yl)phenyl)-3,9-diazaspiro[5.5]undecan-3-yl)methyl)piperidin-1-yl)-2-(2,6-dioxopiperidin-3-yl)-6-fluoroisoindoline-1,3-dione]
100 to 500	114	≥ 10000	–	–	–	COc1cc(N2CCC(N3CCN(CC4CCN(c5ccc6c(c5)C(=O)N(C5CCC(=O)NC5=O)C6=O)C4)CC3)CC2)c(C2CC2)cc1Nc1ncc(Br)c(Nc2ccc3nccnc3c2P(C)(C)=O)n1 (stereo not shown) [Compound 35, 5-(3-((4-(1-(4-((5-bromo-4-((5-(dimethylphosphoryl)quinoxalin-6-yl)amino)pyrimidin-2-yl)amino)-2-cyclopropyl-5-methoxyphenyl)piperidin-4-yl)piperazin-1-yl)methyl)pyrrolidin-1-yl)-2-(2,6-dioxopiperidin-3-yl)isoindoline-1,3-dione]
< 100	27	–	–	86600	5.91	COc1cc(N2CCC(CN3CCN(c4ccc5c(c4)C(=O)N(C4CCC(=O)NC4=O)C5=O)CC3)CC2)c(-c2cnn(C)c2)cc1Nc1ncc(Br)c(Nc2ccc(F)cc2P(C)(C)=O)n1 (stereo not shown) [Compound 141, 5-(4-((1-(4-((5-bromo-4-((2-(dimethylphosphoryl)-4-fluorophenyl)amino)pyrimidin-2-yl)amino)-5-methoxy-2-(1-methyl-1H-pyrazol-4-yl)phenyl)piperidin-4-yl)methyl)piperazin-1-yl)-2-(2,6-dioxopiperidin-3-yl)isoindoline-1,3-dione]
< 100	79	≥ 10000	–	–	–	COc1cc(N2CCN(C3CN(c4ccc5c(c4)C(=O)N(C4CCC(=O)NC4=O)C5=O)C3)CC2)c(-c2cnn(C)c2)cc1Nc1ncc(Cl)c(Nc2ccc(C3CC3)cc2P(C)(C)=O)n1 (stereo not shown) [Compound 148, 5-(3-(4-(4-((5-chloro-4-((4-cyclopropyl-2-(dimethylphosphoryl)phenyl)amino)pyrimidin-2-yl)amino)-5-methoxy-2-(1-methyl-1H-pyrazol-4-yl)phenyl)piperazin-1-yl)azetidin-1-yl)-2-(2,6-dioxopiperidin-3-yl)isoindoline-1,3-dione]
< 100	55	≥ 10000	–	–	–	COc1cc(N2CCN(C3CCN(CC4CCN(c5ccc6c(c5)C(=O)N(C5CCC(=O)NC5=O)C6=O)CC4)CC3)CC2)c(-c2cnn(C)c2)cc1Nc1ncc(Cl)c(Nc2ccc(-c3ccccc3)cc2P(C)(C)=O)n1 (stereo not shown) [Compound 40, 5-(4-((4-(4-(4-((5-chloro-4-((3-(dimethylphosphoryl)-[1,1′-biphenyl]-4-yl)amino)pyrimidin-2-yl)amino)-5-methoxy-2-(1-methyl-1H-pyrazol-4-yl)phenyl)piperazin-1-yl)piperidin-1-yl)methyl)piperidin-1-yl)-2-(2,6-dioxopiperidin-3-yl)isoindoline-1,3-dione]
< 100	71	≥ 10000	–	–	–	COc1cc(N2CCN(C3CCN(CC4CCN(c5cc6c(cc5F)C(=O)N(C5CCC(=O)NC5=O)C6=O)CC4)CC3)CC2)c(-c2cnn(C)c2)cc1Nc1ncc(Br)c(Nc2ccc(-c3ccccc3)cc2P(C)(C)=O)n1 (stereo not shown) [Compound 46, 5-(4-((4-(4-(4-((5-bromo-4-((3-(dimethylphosphoryl)-[1,1′-biphenyl]-4-yl)amino)pyrimidin-2-yl)amino)-5-methoxy-2-(1-methyl-1H-pyrazol-4-yl)phenyl)piperazin-1-yl)piperidin-1-yl)methyl)piperidin-1-yl)-2-(2,6-dioxopiperidin-3-yl)-6-fluoroisoindoline-1,3-dione]
< 100	77	≥ 10000	–	–	–	COc1cc(N2CCC(CN3CCN(c4ccc5c(c4)C(=O)N([C@@H]4CCC(=O)NC4=O)C5=O)CC3)CC2)c(-c2cnn(C)c2)cc1Nc1ncc(Br)c(Nc2ccc(C3CC3)cc2P(C)(C)=O)n1 [Compound 171]

Compound	IC50 ([1]; read-out: IC50 (class symbol)) [nM]	IC50 [1, 3] [nM]	IC50 (A431 (EGFR-WT) cells) [nM]	AUC(0-t) [2] [ng·h/mL]	AUC [2] [ng·h/mL]	half-life [2] [h]
COc1cc(N2CCC(N3CCN(C4CC5(CCN(c6ccc7c(c6)C(=O)N(C6CCC(=O)NC6=O)C7=O)CC5)C4)CC3)CC2)c(-c2cnn(C)c2)cc1Nc1ncc(Br)c(Nc2ccc(-c3ccccc3)cc2P(C)(C)=O)n1 (stereo not shown) [Compound 63, 5-(2-(4-(1-(4-((5-bromo-4-((3-(dimethylphosphoryl)-[1,1′-biphenyl]-4-yl)amino)pyrimidin-2-yl)amino)-5-methoxy-2-(1-methyl-1H-pyrazol-4-yl)phenyl)piperidin-4-yl)piperazin-1-yl)-7-azaspiro[3.5]nonan-7-yl)-2-(2,6-dioxopiperidin-3-yl)isoindoline-1,3-dione]	< 100	90	≥ 10000	14700	–	–
COc1cc(N2CCC(N3CCN(C4CC5(CCN(c6ccc7c(c6)C(=O)N(C6CCC(=O)NC6=O)C7=O)CC5)C4)CC3)CC2)c(-c2cnn(C)c2)cc1Nc1ncc(Cl)c(Nc2ccc(-c3ccccc3)cc2P(C)(C)=O)n1 (stereo not shown) [Compound 91]	< 100	78	≥ 10000	7580	–	–
